Patent US20220002288A1, “MONOBACTAM COMPOUNDS AND USE THEREFOR” (priority 2018, published 2022)
Where a name gives a salt, the structure may show the parent alone. Read-outs that look alike come from different tables or passages of the source.

Columns and labels:
Acinetobacter baumannii = assay: In vitro antibacterial activity, minimum inhibitory concentration (MIC); assay type: cell-based
Method: (§1) Compounds: The compounds prepared in the above examples and comparative examples. All test compounds were dissolved and diluted with DMSO, and the final concentrations were prepared as 64, 32, 16, 8, 4, 2, 1, 0.5, 0.25, 0.125, 0.0625 μg/mL in the experiment.
(§2) Bacterial strains: 6 strains of Acinetobacter baumannii (codenames: HDBAB-YK4, HDBAB-YK7, HDBAB-YK12, HDBAB-YK16, HDBAB_OXA_7, ATCC 19606), 2 strains of Pseudomonas aeruginosa (codenames: HDBPA-YK9, HDBPA)-YK15), 1 strain of Escherichia coli (codename: CLB30048), all provided by HD Biosciences (Shanghai) Co., Ltd.
(§3) Medium: Trypticase soy agar (TSA) (BD BBL 211043), and Cation-adjusted Mueller Hinton broth (CAMHB) (BD BBL212322).
(§4) The bacteria used for the minimum inhibitory concentration (MIC) test were stored frozen at −80° C., and needed 2 days to recover before use. A small amount of frozen bacteria was scraped with a sterile inoculation loop for streak inoculation on a TSA solid medium petri dish. The dish was placed in an ordinary incubator at 35±2° C. for 20-24 hours. 5-10 Colonies with similar morphologies were picked from the above-mentioned petri dish with a sterile inoculating loop for streak inoculation again on a TSA solid medium petri dish. The dish was then placed in an ordinary incubator at 35±2° C. for 20-24 hours.
(§5) 1.02×CAMHB liquid medium was taken out from a 4° C. refrigerator and placed at room temperature for preheating. 5-10 Individual bacterial colonies were picked from the solid petri dish of the above Section 2.1 and re-suspended in 500 μL of 0.9% NaCl, and then the OD600 was adjusted to 0.1-0.15 with a spectrophotometer. Then the bacteria were diluted 400 times with 1.02×CAMHB (two-step dilution method: firstly diluting 10 times, then diluting 40 times).
(§6) The number of inoculated bacteria can be obtained by counting the colonies on the petri dish (see Section 2.4).
(§7) One compound was arranged in each row of a 96-well test plate: the highest test concentration for each compound was 64 μg/mL, which was diluted by a factor of two.
(§8) Growth control (GC): 1.02×CAMHB and dimethyl sulfoxide (DMSO) containing bacterial inoculum, no compound.
(§9) Sterile control (SC): Containing 1.02×CAMHB and DMSO, no compound.
(§10) All test compounds were dissolved and diluted with DMSO. 50 μL of 3.2 mg/mL of each test compound was transferred to the initial well (A1-H1) of the dilution plate, and then 25 μL of DMSO was transferred to other wells. The test compounds were sequentially diluted by a factor of 2 from column 1 to column 11 (i.e. drawing 25 μL of test compound from column 1 to column 2 and mixing well, and then drawing 25 μL of test compound from column 2 to column 3 and mixing well, and then drawing 25 μL of test compound from column 3 to column 4 and mixing well, and so on, until diluting to column 11).
(§11) 2 μL of the compound was transferred from the compound plate to the corresponding well of the test plate. Meanwhile, 2 μL of 100% DMSO was transferred to the compound-free wells (the GC and SC wells).
(§12) 98 μL of the corresponding bacterial inoculum was added to the test plate (except for the SC well).
(§13) 98 μL of 1.02×CAMHB medium was added to the SC well of the test plate.
(§14) After the system was added, the test plate was covered with a sterile lid, centrifuged at 800 rpm for 30 seconds, then shaken on a plate shaker at 400 rpm for 1 minute for mixing well, and then placed in an incubator at 35±2° C. for 20 hours.
(§15) The inoculated bacteria were gradient diluted by 10 folds with the liquid medium, from 10^−1 to 10^−3. 100 μL of the above bacterial dilution was spread evenly on a TSA petri dish, 2 replicates for each dilution. After the medium was absorbed by TSA for 10 minutes, the petri dishes were reversed and incubated in an incubator at 35±2° C. for 24 hours.
(§16) A compound management system was turned on to check whether the barcode and compound arrangement of each test plate were correct. […]

Escherichia coli = assay: as above; assay type: cell-based; details: strain CLB30048, read-out: MIC
Method: as §1, §2, §3, §4, §5, §6, §7, §8, §9, §10, §11, §12, §13, §14, §15, §16

Pseudomonas aeruginosa = assay: as above; assay type: cell-based
Method: as §1, §2, §3, §4, §5, §6, §7, §8, §9, §10, §11, §12, §13, §14, §15, §16

[1] = Pharmacokinetics of the compounds in mice; assay type: in vivo, BALB/c mice; details: mouse, plasma, male BALB/c mice, single intravenous dose 2 mg/kg, plasma; for Vd: male, BALB/c, iv, 2 mg/kg
Text: Animals: male BALB/c mice, SPF grade, purchased from Changzhou Cavens Experimental Animal Co., Ltd.; 16-24 g, license number: SCXK (Su)2016-0010; 2 to 3 days of adaptation period were given before the experiment.
Instruments: API 4500 High Performance Liquid Chromatograph Coupled Triple Quadrupole Mass Spectrometer, and Analyst QS A01.01 Chromatography Workstation were both purchased from AB SCIEX of the United States; Milli-Q ultrapure water device was purchased from Millipore; CF16R XII desktop high-speed refrigerated centrifuge was purchased From Hitachi Company; Qilinbeier Vortex-5 oscillator was purchased from IKA Company of German; electric heating constant-temperature water bath was purchased from Changzhou Guohua Electric Appliance Co., Ltd.; electric pipette was purchased from Thermo Company of American; and microanalysis balance was purchased from Shanghai Mettler Co., Ltd.
2 mg of the test compound was weighed, added to physiological saline, vortexed for 2 min, and ultrasonicated for 3 min, to prepare a test solution with a concentration of 0.2 mg/mL for intravenous administration.
A single dose of 2 mg/kg of the test compound was administered to BALB/c mice via the tail vein, the dose volume being 0.1 mL/10 g. At 5 min, 15 min, 30 min, 1 h, 2 h, 4 h after administration, blood samples were collected from the orbital venous plexus into heparinized EP tubes (0.6 mL), which were temporarily placed on crushed ice.
The samples were centrifuged at 8000 rpm for 5 min. 15 μL of upper plasma were transferred to a 96-well plate. 150 μL of methanol:acetonitrile (v/v=1:1) (containing 20 ng/mL tolbutamide) was added to 15 μL of plasma, shaken for 3 min, and centrifuged at 4500 rpm for 5 min. 100 μL of supernatant was taken to a 2 mL deep well plate. 100 μL of diluent (pure water) was added. The samples were shaken for 3 min, and centrifuged at 4500 rpm for 5 min. 180 μL of the supernatant was transferred to the sample plate. The content of the compound in the supernatant sample was analyzed by LC-MS/MS, and various pharmacokinetic parameters were calculated with WinNonlin software.

[2] = system: Acinetobacter baumannii, Pseudomonas aeruginosa, and Escherichia coli; assay: In vitro antibacterial activity, summary statements over all strains of Experimental Example 1; assay type: cell-based; details: method of Experimental Example 1
Method: as §1, §2
The minimum inhibitory concentration (MIC) of each compound was recorded according to the guidelines of the Clinical and Laboratory Standards Institute.

## CC1(C)[C@H](NC(=O)/C(=N\O[C@@H](COc2ccc(-c3cn4[n+](c3)CC(OCCCN)C4)cc2)C(=O)O)c2csc(N)n2)C(=O)N1OS(=O)(=O)[O-] (stereo partly drawn) [Example 3, (3S)-3-((Z)-2-(((1S)-2-(4-(2-(3-aminopropoxy)-2,3-dihydro-1H-pyrazolo[1,2-a]pyrazol-4-ium-6-yl)phenoxy)-1-carboxyethoxy)imino)-2-(2-aminothiazol-4-yl)acetylamino)-2,2-dimethyl-4-oxoazetidin-1-yl Sulfate]
Acinetobacter baumannii; ATCC19606, strain ATCC 19606
  MIC: 2 µg/mL
Acinetobacter baumannii; strain HDBAB-YK4
  MIC: 2 µg/mL
Acinetobacter baumannii; strain HDBAB-YK7
  MIC: 2 µg/mL
Acinetobacter baumannii; strain HDBAB-YK12
  MIC: 2 µg/mL
Acinetobacter baumannii; strain HDBAB-YK16
  MIC: 16 µg/mL
Acinetobacter baumannii; strain HDBAB_OXA_7
  MIC: 8 µg/mL
Escherichia coli
  MIC: 4 µg/mL
Pseudomonas aeruginosa; strain HDBPA-YK9
  MIC: 16 µg/mL
Pseudomonas aeruginosa; strain HDBPA-YK15
  MIC: > 64 µg/mL
[1]; read-out: VSS
  Vd: 0.26 L/kg
[1]; read-out: Vd
  Vd: 0.35 L/kg
[1]
  AUC(0-inf): 2310 ng·h/mL
  AUC(0-t): 2300 ng·h/mL
  C0: 8650 ng/mL
  clearance: 14.5 mL/min/kg
  half-life: 16.8 min
[2]
  in vitro antibacterial activity (in words): excellent antibacterial activity

## CC1[C@@H](NC(=O)/C(=N\OC2(C(=O)O)CC2)c2csc(N)n2)[C@@H](CN2CCOC2=O)N1S(=O)(=O)O (some centres unmarked) [Compound B, reference compound]
Acinetobacter baumannii; strain HDBAB-YK4
  MIC: > 64 µg/mL
Acinetobacter baumannii; strain HDBAB-YK7
  MIC: > 64 µg/mL
Acinetobacter baumannii; strain HDBAB-YK12
  MIC: > 64 µg/mL
Acinetobacter baumannii; strain HDBAB-YK16
  MIC: > 64 µg/mL
Acinetobacter baumannii; strain HDBAB_OXA_7
  MIC: > 64 µg/mL
Escherichia coli
  MIC: > 64 µg/mL
Pseudomonas aeruginosa; strain HDBPA-YK9
  MIC: > 64 µg/mL
Pseudomonas aeruginosa; strain HDBPA-YK15
  MIC: > 64 µg/mL
[2]
  in vitro antibacterial activity (in words): significantly weaker
